Columns and labels:
[1] = Solubility assessment in excipients and vehicles; type: physicochemical
[2] = Two-compartment IV PK model fitted to published human bolus psilocybin IV data; conditions: psilocin after 1 mg psilocybin IV, fitted estimate
Method: All analysis was performed using the software R and RStudio, with models being defined using analytical and ODE solutions.
Systemic PK parameters were derived for published human bolus psilocybin IV data and human infusion simulations were performed over a range of doses to identify infusion regimens that achieved the target profile.
Human IV PK data for psilocin after psilocybin was administered was taken from Hasler et al. “Determination of psilocin and 4-hydroxyindole-3-acetic acid in plasma by HPLC-ECD and pharmacokinetic profiles of oral and intravenous psilocybin in man”. Pharm Acta Helv. 1997 June; 72(3):175-84. Model selection was performed by assessing visual fit to data and the respective model AIC's of a one compartment and two compartment IV PK model. These systemic human PK parameters were then used for human infusion simulations by simulating the PK profiles over a range of doses. The effect of two infusion rates, a faster followed by slower infusion rate was also investigated.
Pharm Acta Helv. 1997 June; 72(3):175-84. It is assumed that the generation of psilocin is instantaneous and complete once psilocybin is absorbed.
An IV two compartment model best described the IV data from FIG. 2. A two-compartment model gave a good description of the raw data capturing the Cmax and terminal phase well, FIG. 3. […]

| Compound | solubility ([1]; non-micronised, in all the excipients tested) | k12 [2] [min⁻¹] | k21 [2] [min⁻¹] | solubility ([1]; in DMSO and NMP) | solubility as a function of pH ([1]; initial trials, 30 mg/g in aqueous vehicles) |
| --- | --- | --- | --- | --- | --- |
| CN(C)CCc1c[nH]c2cccc(OP(=O)(O)O)c12 [psilocybin, [3-(2-dimethylaminoethyl)-1H-indol-4-yl]dihydrogen phosphate] | poor solubility | – | – | – | – |
| CN(C)CCc1c[nH]c2cccc(O)c12 [psilocin, 4-hydroxy-N,N-dimethyltryptamine] | – | 0.176 | 0.0489 | good solubility | higher solubility at acidic pH |
